Results as given in patent publication US8247377B2, “Non-steroidal glucocorticoid inhibitors and their use in treating inflammation, allergy and auto-immune conditions” (Glaxo Group Limited, priority 2006, dated 2012).

How the values were obtained:
[1] = system: NFκB; experiment: NFκB agonist assay in A549 SPAP cells; assay type: cell-based; conditions: Homo sapiens; for IC50: A549 SPAP cells, TNFα 3.2 ng/ml, read-out: pIC50 for the NFkB assay (converted);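 as to average maximum asymptote in the NFkB assay: maximum inhibition of the TNFα-induced NFκB-driven signal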
Excerpt: Human lung carcinoma A549 cell line (ECACC No. 86012804) has been stably transfected in house with a plasmid containing an ELAM promoter sequence that has a NFκB response element within it. Stimulation of the cell line with TNFα results in intracellular signal transduction and ultimately translocation of NFκB into the nucleus. This activates the inserted DNA sequence resulting in transcription of the integrated SPAP gene, which is quantified using a colorimetric assay. […] The stably transfected cell line was grown as a monolayer in DMEM supplemented with FCS-HI (10%), Non-essential amino acids (1%), L-Glutamine (2 mM), Pen/Strep (1%) and Geneticin (50 mg/ml).
A 70% confluent T225 flask of A549 SPAP cells was harvested by centrifugation for 5 min at 200 g, resuspended in assay buffer (DMEM supplemented with 10% FCS 2×HI, 2 mM L-Glutamine, 1% Pen/Strep and Non essential amino acids) and diluted to 0.16×10^6/ml. 60 μl of cell solution was dispensed to each well of clear Nunc 384-well plates, containing compound at the required concentration. Plates were incubated for 1 h at 37° C., 95% humidity, 5% CO2 before 10 μl of TNFα was added at final concentration of 3.2 ng/ml and then returned to the cell incubator for 15 h. Plates were equilibrated to room temperature for 1 h prior to the addition of 25 μl of pNPP buffer (1M Diethanolamine pH 9.8, 0.5 mM MgCl2, 0.28M NaCl, 2 mg/ml pNPP) to each well of assay plates. The plates were covered to protect the reagents from light, and then incubated at room temperature for approximately 1 hour before reading them on an Ascent using a 405 nm single filter. Dose response curves were constructed from which pIC50 values were estimated.

[2] = target: T1, progesterone receptor (Homo sapiens, UniProt P06401); experiment: Assay for progesterone receptor activity (CV-1 cells, PRb-BacMam/MMTV-BacMam); assay type: cell-based; conditions: CV-1 cells transduced with PRb-BacMam and MMTV-BacMam; read-out: pEC50 progesterone receptor activity (converted)
T1 construct: expressed in transfected cells; host or cells: CV-1 cells transduced with PRb-BacMam and MMTV-BacMam
T1 sequence (P06401 1-933): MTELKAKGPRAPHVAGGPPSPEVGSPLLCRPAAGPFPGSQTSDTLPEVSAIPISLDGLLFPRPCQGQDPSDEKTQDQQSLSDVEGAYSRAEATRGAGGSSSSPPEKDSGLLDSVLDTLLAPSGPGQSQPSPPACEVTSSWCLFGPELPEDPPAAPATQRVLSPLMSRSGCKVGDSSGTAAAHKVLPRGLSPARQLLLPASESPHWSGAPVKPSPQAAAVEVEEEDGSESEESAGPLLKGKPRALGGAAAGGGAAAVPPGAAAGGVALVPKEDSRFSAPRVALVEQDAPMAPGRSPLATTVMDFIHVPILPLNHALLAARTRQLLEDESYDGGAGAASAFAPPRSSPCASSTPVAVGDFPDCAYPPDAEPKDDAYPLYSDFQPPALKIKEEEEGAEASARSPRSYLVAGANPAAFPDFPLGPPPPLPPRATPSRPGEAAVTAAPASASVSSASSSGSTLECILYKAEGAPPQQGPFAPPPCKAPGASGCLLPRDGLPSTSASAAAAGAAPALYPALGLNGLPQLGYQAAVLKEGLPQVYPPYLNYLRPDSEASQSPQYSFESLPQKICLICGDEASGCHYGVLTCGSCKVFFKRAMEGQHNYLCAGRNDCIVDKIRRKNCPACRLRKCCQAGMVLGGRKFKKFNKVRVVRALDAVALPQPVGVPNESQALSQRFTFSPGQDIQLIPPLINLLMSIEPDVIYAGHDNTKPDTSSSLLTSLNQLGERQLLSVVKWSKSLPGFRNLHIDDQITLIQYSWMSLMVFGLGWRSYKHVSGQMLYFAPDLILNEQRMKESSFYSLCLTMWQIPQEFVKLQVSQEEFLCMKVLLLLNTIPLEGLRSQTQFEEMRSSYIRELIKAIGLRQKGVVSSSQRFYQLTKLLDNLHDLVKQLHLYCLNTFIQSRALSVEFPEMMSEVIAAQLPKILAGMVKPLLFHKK
Description: A T225 flask of CV-1 cells at a density of 80% confluency was washed with PBS, detached from the flask using 0.25% trypsin and counted using a Sysmex KX-21N. Cells were diluted in DMEM containing 10% Hyclone, 2 mM L-Glutamate and 1% Pen/Strep at 140 cells/μl and transduced with 10% PRb-BacMam and 10% MMTV-BacMam. […] of suspension cells were dispensed to each well of white Nunc 384-well plates, containing compounds at the required concentration. After 24 h 10 μl of Steadylite were added to each well of the plates. Plates were incubated in the dark for 10 min before reading them on a Viewlux reader. Dose response curves were constructed from which pEC50 values were estimated.

[3] = target: T2, glucocorticoid receptor (Homo sapiens, UniProt P04150); experiment: Glucocorticoid receptor binding assay (fluorescence polarisation); conditions: competition with Alexa 555 fluorescently-labelled dexamethasone derivative, full length glucocorticoid receptor; read-out: glucocorticoid binding pIC50 (converted)
T2 construct: a partially purified full length glucocorticoid receptor
T2 sequence (P04150 1-777): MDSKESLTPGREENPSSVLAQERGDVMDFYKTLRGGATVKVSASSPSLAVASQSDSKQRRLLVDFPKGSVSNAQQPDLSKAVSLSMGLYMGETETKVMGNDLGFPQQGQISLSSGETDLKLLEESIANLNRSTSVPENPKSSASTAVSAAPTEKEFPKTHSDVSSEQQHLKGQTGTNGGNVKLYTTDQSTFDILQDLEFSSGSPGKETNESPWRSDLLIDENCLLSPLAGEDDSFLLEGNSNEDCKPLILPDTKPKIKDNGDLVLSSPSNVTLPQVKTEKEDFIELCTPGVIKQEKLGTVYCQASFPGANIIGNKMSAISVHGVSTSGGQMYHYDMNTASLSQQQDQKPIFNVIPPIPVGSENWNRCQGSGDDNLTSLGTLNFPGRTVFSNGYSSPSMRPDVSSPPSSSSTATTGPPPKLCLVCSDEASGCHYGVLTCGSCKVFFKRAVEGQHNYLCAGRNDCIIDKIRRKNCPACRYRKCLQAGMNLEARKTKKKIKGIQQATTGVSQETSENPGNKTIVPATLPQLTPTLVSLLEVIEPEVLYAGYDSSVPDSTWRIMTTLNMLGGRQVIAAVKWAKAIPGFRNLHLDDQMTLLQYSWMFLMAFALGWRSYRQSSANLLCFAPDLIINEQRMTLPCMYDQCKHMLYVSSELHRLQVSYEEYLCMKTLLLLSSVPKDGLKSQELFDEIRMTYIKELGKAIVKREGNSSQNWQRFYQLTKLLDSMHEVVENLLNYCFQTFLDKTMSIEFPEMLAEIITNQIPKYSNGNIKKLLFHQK
Description: Compounds were solvated and diluted in DMSO, and transferred directly into assay plates. Fluorescent dexamethasone and a partially purified full length glucocorticoid receptor were added to the plates, together with buffer components to stabilise the GR protein and incubated at room temperature for 2 hrs in the dark. Binding of each compound was assessed by analysing the displacement of fluorescent ligand by measuring the decrease in fluorescence polarisation signal from the mixture. Dose response curves were constructed from which pIC50 values were estimated.

[4] = system: MMTV promoter; experiment: MMTV agonist assay in A549 MMTV cells; assay type: cell-based; conditions: Homo sapiens, A549, 6 h, >85% = full agonist, >20% and <85% = partial or efficacy selective agonist, read-out: average maximum asymptote in the MMTV agonist assay
Excerpt: Human lung carcinoma A549 cell line (ECACC No. 86012804) has been stably transfected in house with a plasmid containing a renilla luciferase reporter with an MMTV promoter. Stimulation of the cell line with GR agonists results in intracellular signal transduction and ultimately translocation of GR into the nucleus. This activates the inserted DNA sequence resulting in transcription of the integrated luciferase gene, which is quantified using a light emission. The stably transfected cell line was grown as a monolayer in DMEM supplemented with FCS-HI (10%), Non-essential amino acids (1%), L-Glutamine (2 mM), Pen/Strep (1%) and Geneticin (50 mg/ml).
A 90% confluent T175 flask of A549 MMTV cells was harvested by centrifugation for 5 min at 200 g, resuspended in assay buffer (DMEM supplemented with 10% FCS 2×HI, 2 mM Glutamax, Non essential amino acids and 25 mM HEPES) and diluted to 0.1×10^6/ml. 70 μl of cell solution was dispensed to each well of white Nunc 384-well plates, containing compound at the required concentration. Plates were incubated for 6 h at 37° C., 95% humidity, 5% CO2. Plates were equilibrated to room temperature for 1 h prior to the addition of 10 μl of Renilla substrate to each well of assay plates. The plates were covered to protect the reagents from light, and then incubated at room temperature for approximately 15 mins before reading them on a Viewlux. Dose response curves were constructed from which pEC50 and maximum asymptote values were estimated.

Row | SMILES | IC50 [1] [nM] | EC50 [2] [nM] | IC50 [3] [nM] | Emax ([1]; A549, A549 SPAP cells, >85% = full agonist, ≧20% = partial or full agonist, read-out: average maximum asymptote in the NFkB assay) [%] | Emax [4] [%]
1 | CCN(CC(O)(CNC(=O)c1cnn(-c2ccc(F)cc2)c1N)C(F)(F)F)C(=O)c1c(Cl)cccc1Cl (single isomer, unassigned) [Example 2 Enantiomer 1, 5-Amino-N-(2-{[[(2,6-dichlorophenyl)carbonyl](ethyl)amino]methyl}-3,3,3-trifluoro-2-hydroxypropyl)-1-(4-fluorophenyl)-1H-pyrazole-4-carboxamide] | < 1000 | > 1000 | ≤ 316 |  | 
2 | Nc1c(C(=O)NCC(O)(CN(CCF)C(=O)c2c(OC(F)F)cccc2OC(F)F)C(F)(F)F)cnn1-c1ccc(F)cc1 (racemic) [Example 32 (racemic), 5-amino-N-(2-{[({2,6-bis[(difluoromethyl)oxy]phenyl}carbonyl)(2-fluoroethyl)amino]methyl}-3,3,3-trifluoro-2-hydroxypropyl)-1-(4-fluorophenyl)-1H-pyrazole-4-carboxamide] | < 1000 | > 1000 | ≤ 316 |  | 
3 | Nc1c(C(=O)NCC(O)(CNC(=O)c2c(C(F)(F)F)cccc2C(F)(F)F)C(F)(F)F)cnn1-c1ccc(F)cc1 (single isomer, unassigned) [Example 15 Enantiomer 2, 5-amino-N-{2-[({[2,6-bis(trifluoromethyl)phenyl]carbonyl}amino)methyl]-3,3,3-trifluoro-2-hydroxypropyl}-1-(4-fluorophenyl)-1H-pyrazole-4-carboxamide] | < 1000 |  |  |  | 
4 | Nc1c(C(=O)NCC(O)(CNC(=O)c2c(F)cccc2Cl)C(F)(F)F)cnn1-c1ccc(F)cc1 (single isomer, unassigned) [Example 7 Enantiomer 1, 5-Amino-N-[2-({[(2-chloro-6-fluorophenyl)carbonyl]amino}methyl)-3,3,3-trifluoro-2-hydroxypropyl]-1-(4-fluorophenyl)-1H-pyrazole-4-carboxamide] | < 1000 | > 1000 |  |  | 
5 | CCN(CC(O)(CNC(=O)c1cnn(-c2ccc(F)cc2)c1N)C(F)(F)F)C(=O)c1c(F)cccc1Cl (single isomer, unassigned) [Example 4 Enantiomer 1, 5-Amino-N-(2-{[[(2-chloro-6-fluorophenyl)carbonyl](ethyl)amino]methyl}-3,3,3-trifluoro-2-hydroxypropyl)-1-(4-fluorophenyl)-1H-pyrazole-4-carboxamide] | < 1000 | > 1000 | ≤ 316 |  | 
6 | Nc1c(C(=O)NCC(O)(CNC(=O)c2c(F)cccc2Cl)C(F)(F)F)cnn1-c1ccc(F)cc1 (single isomer, unassigned) [Example 7 Enantiomer 2, 5-Amino-N-[2-({[(2-chloro-6-fluorophenyl)carbonyl]amino}methyl)-3,3,3-trifluoro-2-hydroxypropyl]-1-(4-fluorophenyl)-1H-pyrazole-4-carboxamide] |  |  |  | ≥ 20 | 20 to 85
7 | Nc1c(C(=O)NCC(O)(CNC(=O)c2c(F)cccc2F)C(F)(F)F)cnn1-c1ccc(F)cc1 (racemic) [Example 6 (racemic), 5-Amino-N-[2-({[(2,6-difluorophenyl)carbonyl]amino}methyl)-3,3,3-trifluoro-2-hydroxypropyl]-1-(4-fluorophenyl)-1H-pyrazole-4-carboxamide] |  | > 1000 |  |  | 
8 | Nc1c(C(=O)NCC(O)(CNC(=O)c2c(F)cccc2OC(F)F)C(F)(F)F)cnn1-c1ccc(F)cc1 (racemic) [Example 48 (racemic), 5-Amino-N-(2-{[({2-[(difluoromethyl)oxy]-6-fluorophenyl}carbonyl)amino]methyl}-3,3,3-trifluoro-2-hydroxypropyl)-1-(4-fluorophenyl)-1H-pyrazole-4-carboxamide] | < 1000 | > 1000 | ≤ 316 |  | 
9 | Nc1c(C(=O)NCC(O)(CNC(=O)c2c(OC(F)F)cccc2OC(F)F)C(F)(F)F)cnn1-c1ccc(F)cc1 (racemic) [Example 20 (racemic), 5-amino-N-(2-{[({2,6-bis[(difluoromethyl)oxy]phenyl}carbonyl)amino]methyl}-3,3,3-trifluoro-2-hydroxypropyl)-1-(4-fluorophenyl)-1H-pyrazole-4-carboxamide] |  | > 1000 | ≤ 316 |  | 
